Data published in patent publication US5053070A, “Pyrimidine derivatives, preparation processes thereof, herbicide containing the same, and herbicidal compositions containing the same along with other active ingredient” (Mitsui Toatsu Chemicals, Incorporated, priority 1988, dated 1991).

How the values were obtained:
Assay type in all cases: in vivo
barnyardgrass [1] = experiment: Upland soil application test (Test 2); details: 30 g ai/a, soil spray before emergence, 30 days later
Outline: (§1)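 Weeds are grown from seed incorporated in upland field soil under greenhouse conditions and treated pre-emergence, one day after sowing, with a water-diluted wettable powder of each compound. Effect is scored after 30 days from air-dried weight relative to untreated pots.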

common lambsquarters = experiment: Upland soil application test (Test 2); details: 30 g ai/a, soil spray before emergence, 30 days later
Outline: as §1

foxtail meadow = experiment: Upland soil application test (Test 2); details: 30 g ai/a, soil spray before emergence, 30 days later
Outline: as §1

green foxtail [2] = experiment: Upland soil application test (Test 2); details: 30 g ai/a, soil spray before emergence, 30 days later
Outline: as §1

johnsongrass = experiment: Upland soil application test (Test 2); details: 30 g ai/a, soil spray before emergence, 30 days later
Outline: as §1

large crabgrass = experiment: Upland soil application test (Test 2); details: 30 g ai/a, soil spray before emergence, 30 days later
Outline: as §1

redroot pigweed = experiment: Upland soil application test (Test 2); details: 30 g ai/a, soil spray before emergence, 30 days later
Outline: as §1

cotton = experiment: Upland foliar application test (Test 3), crop injury; details: 30 g ai/a, foliar spray at 2-3 leaves, 30th day
Outline: (§2)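 Steps: sow in upland soil, greenhouse; grow to 2-3 leaf stage; spray leaves with water-diluted emulsion at 5 l per are using a ULV sprayer; assess effects on day 30.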

peanut = experiment: as above; details: 30 g ai/a, foliar spray at 2-3 leaves, 30th day
Outline: as §2

soybean = experiment: as above; details: 30 g ai/a, foliar spray at 2-3 leaves, 30th day
Outline: as §2

Sagittaria pygmaea [3] = experiment: Treatment of soil under submerged condition, pre-emergence (Test 4); details: 30 g ai/a granule, 30 days later
Outline: (§3)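 Under submerged conditions, pots carrying weed propagules and transplanted young rice (2–3 leaves) were given a granulated test composition one day after planting, ahead of weed emergence. Plants grew in a greenhouse, with weed emergence and crop injury read 30 days after treatment.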

barnyardgrass [4] = experiment: as above; details: 30 g ai/a granule, 30 days later
Outline: as §3

bulrush [5] = experiment: as above; details: 30 g ai/a granule, 30 days later
Outline: as §3

rice = experiment: Treatment of soil under submerged condition, pre-emergence (Test 4), injury; details: 30 g ai/a granule, 30 days later
Outline: as §3

Sagittaria pygmaea [6] = experiment: Treatment of soil under submerged condition, post-emergence (Test 5); details: 30 g ai/a granule, 30 days later
Outline: (§4)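 Post-emergence paddy test: granules of a predetermined amount of test composition go onto flooded pots when barnyardgrass has two leaves. Transplanted rice seedlings (2–3 leaf stage) share the pots with sown weeds. Damage and crop injury are rated at 30 days.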

barnyardgrass [7] = experiment: as above; details: 30 g ai/a granule, post-emergence (barnyardgrass two-leaf stage), 30 days later
Outline: as §4

bulrush [8] = experiment: as above; details: 30 g ai/a granule, 30 days later
Outline: as §4

barnyardgrass [9] = experiment: Upland foliar application test by mixed formulations (Test 7); details: Echinochloa crus-galli, 720 h, applied alone, 30th day, read-out: Herbicidal effects (%) Barnyardgrass Ea; for pest or weed control at 300 g/ha: 0.3 kg/ha
Outline: (§5)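 Foliar spray of two-compound mixed emulsion, diluted with water, at 5 l per are via ULV sprayer onto weeds at 2–3 leaf stage in upland soil pots, greenhouse. Effect observed 30 days after spraying. Measured mixture activity (Ea) compared with Colby expected value (Ec) derived from single-ingredient growth inhibition rates.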

green foxtail [10] = experiment: as above; details: Setaria viridis, 720 h, applied alone, 30th day, read-out: Herbicidal effects (%) Green foxtail Ea; for pest or weed control at 300 g/ha: 0.3 kg/ha
Outline: as §5

morningglories = experiment: as above; details: Ipomoea, 720 h, applied alone, 30th day, read-out: Herbicidal effects (%) Morningglory Ea; for pest or weed control at 300 g/ha: 0.3 kg/ha
Outline: as §5

| Compound | Herbicidal effects Barnyardgrass (barnyardgrass [1]) | Herbicidal effects Common lambsquarters (common lambsquarters) | Herbicidal effects Foxtail meadow (foxtail meadow) | Herbicidal effects Green foxtail (green foxtail [2]) | Herbicidal effects Johnsongrass (johnsongrass) | Herbicidal effects Large crabgrass (large crabgrass) | Herbicidal effects Redroot pigweed (redroot pigweed) | Injury Cotton (cotton) | Injury Peanut (peanut) | Injury Soybean (soybean) | Herbicidal effects Sagittaria Pygmaea (Sagittaria pygmaea [3]) | Herbicidal effects Barnyardgrass (barnyardgrass [4]) | Herbicidal effects Bulrush (bulrush [5]) | Injury Rice (rice) | Herbicidal effects Sagittaria Pygmaea (Sagittaria pygmaea [6]) | Herbicidal effects Barnyardgrass (barnyardgrass [7]) | Herbicidal effects Bulrush (bulrush [8]) | pest or weed control at 300 g/ha (barnyardgrass [9]) | pest or weed control at 300 g/ha (green foxtail [10]) | pest or weed control at 300 g/ha (morningglories) | other results |
| --- | --- | --- | --- | --- | --- | --- | --- | --- | --- | --- | --- | --- | --- | --- | --- | --- | --- | --- | --- | --- | --- |
| COc1cc(OC)nc(Oc2ccccc2C=NOCC=Cc2ccccc2Br)n1 [compound 40] | 5 (0-5 (Death)) | 4 (6-10 (Severe damages)) | 5 (0-5 (Death)) | 4 (6-10 (Severe damages)) | 4 (6-10 (Severe damages)) | 4 (6-10 (Severe damages)) | 5 (0-5 (Death)) | 0 (91-100 (No damages)) | 0 (91-100 (No damages)) | 0 (91-100 (No damages)) | 5 (0-5 (Death)) | 5 (0-5 (Death)) | 3 (11-40 (Medium damages)) | 0 (91-100 (No damages)) | 4 (6-10 (Severe damages)) | 5 (0-5 (Death)) | 4 (6-10 (Severe damages)) | 20% | 10% | 0% |  |
| COc1cc(OC)nc(Oc2ccccc2C=NOCC=Cc2ccccc2C)n1 [Compound No. 39] | 4 (6-10 (Severe damages)) | 4 (6-10 (Severe damages)) | 5 (0-5 (Death)) | 5 (0-5 (Death)) | 5 (0-5 (Death)) | 5 (0-5 (Death)) | 5 (0-5 (Death)) | 0 (91-100 (No damages)) | 0 (91-100 (No damages)) | 0 (91-100 (No damages)) | 4 (6-10 (Severe damages)) | 5 (0-5 (Death)) | 4 (6-10 (Severe damages)) | 1 (71-90 (Slight damages)) | 4 (6-10 (Severe damages)) | 5 (0-5 (Death)) | 4 (6-10 (Severe damages)) | 50% | 50% | 10% |  |
| COc1cccc(C=CCON=Cc2ccccc2Oc2nc(OC)cc(OC)n2)c1 [compound 38] | 5 (0-5 (Death)) | 4 (6-10 (Severe damages)) | 4 (6-10 (Severe damages)) | 5 (0-5 (Death)) | 5 (0-5 (Death)) | 5 (0-5 (Death)) | 4 (6-10 (Severe damages)) | 0 (91-100 (No damages)) | 0 (91-100 (No damages)) | 0 (91-100 (No damages)) | 5 (0-5 (Death)) | 4 (6-10 (Severe damages)) | 4 (6-10 (Severe damages)) | 0 (91-100 (No damages)) | 4 (6-10 (Severe damages)) | 5 (0-5 (Death)) | 5 (0-5 (Death)) | 50% | 40% | 10% |  |
| COc1cc(OC)nc(Oc2ccccc2C=NOCC=Cc2ccccc2C(F)(F)F)n1 [compound 32] | 5 (0-5 (Death)) | 4 (6-10 (Severe damages)) | 5 (0-5 (Death)) | 5 (0-5 (Death)) | 5 (0-5 (Death)) | 5 (0-5 (Death)) | 5 (0-5 (Death)) | 0 (91-100 (No damages)) | 0 (91-100 (No damages)) | 0 (91-100 (No damages)) | 5 (0-5 (Death)) | 5 (0-5 (Death)) | 4 (6-10 (Severe damages)) | 0 (91-100 (No damages)) | 4 (6-10 (Severe damages)) | 5 (0-5 (Death)) | 4 (6-10 (Severe damages)) |  |  |  | pest or weed control at 1000 g/ha (barnyardgrass [9]; 1 kg/ha): 50%; pest or weed control at 1000 g/ha (green foxtail [10]; 1 kg/ha): 30%; pest or weed control at 1000 g/ha (morningglories; 1 kg/ha): 0% |
